Results published in ChEMBL document CHEMBL1201862, “PubChem BioAssay data set” (2004).
Activity calls are given as the source filed them. Rule as the data show it, for most assays here: actives have a measured EC50 and inactives only a lower limit.

Key:
H4 = assay: Luminescence Cell-Based Dose Response HTS to Identify Activators of 5'UTR Stem-Loop Driven Prion Protein mRNA Translation in H4 Neuroglioblastoma Cells. [Related pubchem assays: 1829 (Project Summary), 1814 (Primary HTS)]; type: functional; conditions: Homo sapiens
[1] = Luminescence Cell-Based Dose Response HTS to Identify Activators of Luciferase Translation or Activity in H4 […] Cells. [Related pubchem assays: 1829 (Project Summary), 1814 (Primary HTS)]; type: functional
[2] = HEp-2 cell cytotoxicity, dose response, cytotoxicity control for RSV inhibitor project, HTS (AID 2410); type: functional; conditions: human respiratory syncytial virus
[3] = Luminescence Cell-Based Dose Response HTS to Identify Inhibitors of 5'UTR Stem-Loop Driven Prion Protein mRNA Translation in H4 Neuroglioblastoma Cells. [Related pubchem assays: 1827 (Project Summary), 1813 (Primary HTS)]; type: functional
[4] = inhibitors of SNCA 5'UTR-driven reporter translation, confirmation, H4 neuroglioma cells, luminescence (AID 1988); type: functional, cell-based
[5] = inhibitors of firefly luciferase expression or activity, dose response, H4 neuroglioma cells, luminescence (AID 1990); type: functional, cell-based
Streptococcus = assay: Group A Streptococcus viability loss, dose response, counter-screen for streptokinase expression inhibitor project, luminescence, BacTiterGlo (AID 1915); type: functional, organism-based;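 also: potency for reduction of bacterial viability or growth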
Streptokinase A = biological target: T1, Streptokinase A (Streptococcus pyogenes serotype M1, UniProt P10520); assay: S. pyogenes streptokinase expression inhibitors, potency, dose response, plasminogen activation absorbance, OD405 (AID 1914); type: functional, Streptococcus pyogenes M1 GAS;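 also: secreted streptokinase activity via plasminogen activation per viability signal from cell pellet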
T1 sequence (P10520 whole entry): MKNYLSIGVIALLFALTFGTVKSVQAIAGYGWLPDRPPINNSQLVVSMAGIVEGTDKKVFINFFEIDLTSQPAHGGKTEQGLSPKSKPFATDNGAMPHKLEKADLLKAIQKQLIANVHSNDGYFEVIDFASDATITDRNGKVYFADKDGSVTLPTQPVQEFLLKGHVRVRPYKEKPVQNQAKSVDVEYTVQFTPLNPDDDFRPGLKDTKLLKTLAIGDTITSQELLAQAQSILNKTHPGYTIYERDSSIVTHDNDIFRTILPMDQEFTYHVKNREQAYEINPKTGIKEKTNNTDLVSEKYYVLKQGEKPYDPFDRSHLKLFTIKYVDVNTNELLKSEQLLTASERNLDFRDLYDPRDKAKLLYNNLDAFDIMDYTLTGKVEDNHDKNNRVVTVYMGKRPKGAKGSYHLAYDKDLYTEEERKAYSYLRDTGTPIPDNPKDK

[6] = test system: Streptococcus sp. 'group A'; assay: growth inhibition of control SK(-) GAS strain, dose response, counter-screen for streptokinase expression inhibitor project, luminescence, kanamycin, BacTiterGlo, confirmation (AID 1900); type: functional, organism-based
[7] = Luminescence Cell-Based Dose Retest to Confirm Inhibitors of Cancer Stem Cells. [Related pubchem assays (depositor defined):AID2717, AID2721]; type: functional; conditions: Homo sapiens
[8] = biological target: T2, Corticotropin-releasing factor receptor 2/Corticotropin-releasing factor-binding protein (Homo sapiens, UniProt P24387+Q13324); assay: activators of CRF receptor 2 with binding protein – uHTS hits, confirmation (AID 602473); type: functional; conditions: read-out: EC50_Mean
T2 sequence (Q13324 whole entry): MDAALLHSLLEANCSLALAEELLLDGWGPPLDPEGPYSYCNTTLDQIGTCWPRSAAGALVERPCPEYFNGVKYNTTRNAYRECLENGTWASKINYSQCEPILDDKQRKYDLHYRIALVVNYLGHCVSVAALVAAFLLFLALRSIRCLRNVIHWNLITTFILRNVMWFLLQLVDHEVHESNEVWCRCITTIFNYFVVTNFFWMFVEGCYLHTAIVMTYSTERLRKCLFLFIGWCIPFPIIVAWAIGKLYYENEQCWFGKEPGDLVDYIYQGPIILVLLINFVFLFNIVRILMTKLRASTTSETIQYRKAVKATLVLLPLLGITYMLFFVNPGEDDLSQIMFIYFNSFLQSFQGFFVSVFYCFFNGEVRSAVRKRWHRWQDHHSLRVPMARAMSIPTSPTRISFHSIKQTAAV
T2 sequence (P24387 whole entry): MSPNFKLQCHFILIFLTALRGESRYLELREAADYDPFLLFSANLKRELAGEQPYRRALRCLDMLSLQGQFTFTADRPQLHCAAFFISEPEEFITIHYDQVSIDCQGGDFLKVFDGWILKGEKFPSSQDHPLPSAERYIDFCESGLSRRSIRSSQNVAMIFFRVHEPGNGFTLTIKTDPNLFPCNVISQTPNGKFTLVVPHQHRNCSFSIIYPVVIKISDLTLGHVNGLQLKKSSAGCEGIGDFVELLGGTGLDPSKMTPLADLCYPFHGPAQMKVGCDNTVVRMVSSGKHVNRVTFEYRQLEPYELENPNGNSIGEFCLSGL

Cytochrome P450 3A4 = Cytochrome P450 3A4 (Homo sapiens, UniProt P08684);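 also: CYP3A4 tested as one member of a cytochrome P450 panel screen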
Cytochrome P450 1A2 = biological target: T3, Cytochrome P450 1A2 (Homo sapiens, UniProt P05177);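 also: PubChem cytochrome P450 panel assay, CYP1A2 panel member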
T3 sequence (P05177 whole entry): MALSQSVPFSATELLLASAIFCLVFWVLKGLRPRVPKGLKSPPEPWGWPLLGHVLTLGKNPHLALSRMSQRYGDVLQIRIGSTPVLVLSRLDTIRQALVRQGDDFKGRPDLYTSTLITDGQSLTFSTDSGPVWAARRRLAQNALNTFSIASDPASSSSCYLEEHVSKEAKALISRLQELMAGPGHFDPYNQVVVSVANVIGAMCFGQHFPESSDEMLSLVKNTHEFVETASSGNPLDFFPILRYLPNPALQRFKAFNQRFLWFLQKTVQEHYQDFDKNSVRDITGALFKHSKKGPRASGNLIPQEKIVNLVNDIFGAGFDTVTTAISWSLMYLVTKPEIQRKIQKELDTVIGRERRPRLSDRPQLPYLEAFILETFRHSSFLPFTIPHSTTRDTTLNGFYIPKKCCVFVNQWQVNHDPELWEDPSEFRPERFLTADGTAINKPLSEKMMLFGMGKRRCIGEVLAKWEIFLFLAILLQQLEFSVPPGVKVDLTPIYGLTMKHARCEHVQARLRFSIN

Cytochrome P450 3A4, sequence (P08684 whole entry): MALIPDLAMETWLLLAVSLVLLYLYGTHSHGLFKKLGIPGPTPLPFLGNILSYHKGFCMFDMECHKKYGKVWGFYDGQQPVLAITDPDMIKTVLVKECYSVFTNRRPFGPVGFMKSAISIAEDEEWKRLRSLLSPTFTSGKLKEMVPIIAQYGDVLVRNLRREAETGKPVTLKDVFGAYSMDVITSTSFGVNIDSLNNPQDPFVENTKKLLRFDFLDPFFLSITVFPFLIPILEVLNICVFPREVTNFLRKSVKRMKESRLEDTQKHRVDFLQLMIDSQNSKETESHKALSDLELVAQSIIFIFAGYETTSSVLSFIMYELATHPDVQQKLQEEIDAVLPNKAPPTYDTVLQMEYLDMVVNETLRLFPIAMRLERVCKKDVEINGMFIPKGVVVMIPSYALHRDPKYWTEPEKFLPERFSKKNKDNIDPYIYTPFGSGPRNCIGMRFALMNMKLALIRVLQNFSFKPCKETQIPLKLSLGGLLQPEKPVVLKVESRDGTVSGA

O=C(Nc1ccc(N2CCCCC2)cc1)C(Cl)c1ccccc1 (stereo unspecified)
EC50 (H4): 12.8 µM (active) | EC50 [1]: 0.125 µM (active)

CCn1nc(C)c(CN2CCc3c([nH]c4ccccc34)C2C(C)(C)C)c1C (stereo unspecified)
CC50 [2]: > 50 µM (active)

CC(=O)c1cnc(SCC(=O)O)nc1C
EC50 [3]: > 120 µM (not active) | EC50 [4]: > 120 µM (not active) | EC50 [5]: > 120 µM (not active)

CCNC(=O)Nc1ccccc1C(=O)OC
CC50 [2]: 27.7 µM (active)

C/N=C1\S/C(=C\c2ccc(N3CCOCC3)c(F)c2)C(=O)N1C
EC50 (Streptococcus): 12.2 µM (active) | EC50 (Streptokinase A): > 150 µM (not active) | EC50 [6]: 5.33 µM (active)

COC(=O)c1cccc(NC(=S)NCc2ccc(Cl)cc2)c1
EC50 (Streptokinase A): > 150 µM (not active)

CC/N=C1/S/C(=C\c2cn(CC(=O)NCc3ccco3)c3ccccc23)C(=O)N1CC
EC50 [3]: 14.8 µM (active) | EC50 [4]: 13.9 µM (active) | EC50 [5]: 11.1 µM (active)

COc1ccc([C@H]2Oc3cc(O)cc(O)c3C(=O)C2[C@@H]2C(=O)c3c(O)cc(O)cc3O[C@@H]2c2ccc(OC)cc2)cc1 (stereo partly specified)
AC50 [7]: 7.4 µM (active) | EC50 (Streptococcus): 2.42 µM (active) | EC50 (Streptokinase A): 1.7 µM (active) | EC50 [6]: 2.34 µM (active)

CCOC(=O)C1=C(C)N=c2s/c(=C/c3ccc(OCC(=O)O)cc3)c(=O)n2C1c1ccc(F)cc1 (stereo unspecified)
CC50 [2]: 39.8 µM (active)

CCOC(=O)c1c(C)[nH]c(C(=O)Cn2c(=O)c3c(ncn3CC)n(Cc3ccccc3)c2=O)c1C
EC50 [3]: > 120 µM (not active) | EC50 [4]: 17.2 µM (active) | EC50 [5]: > 120 µM (not active)

COc1ccccc1OCC(=O)NNC(=S)NC(=O)c1ccco1
EC50 (Streptococcus): 41.4 µM (active) | EC50 (Streptokinase A): > 150 µM (not active) | EC50 [6]: 2.81 µM (active)

NC(=O)NNC1=Nc2cccc3cccc1c23
CC50 [2]: > 50 µM (active)

CCCN1C(=O)COc2ccc(-c3nnc(O)c4ccccc34)cc21
EC50 [3]: > 120 µM (not active) | EC50 [4]: 30.9 µM (active) | EC50 [5]: 22.7 µM (active)

O=C(CC1CCCCC1)c1c(O)c2ccccc2oc1=O
EC50 (Streptococcus): 55 µM (active) | EC50 (Streptokinase A): > 150 µM (not active) | EC50 [6]: 3.42 µM (active) | EC50 [8]: 7.06 µM (active)

CSc1cccc(NC(=O)OC2CCCCCCCCCCC2)c1
AC50 (Cytochrome P450 3A4): 3.16 µM (inconclusive) | EC50 (Streptococcus): 10.8 µM (active) | EC50 (Streptokinase A): 2.93 µM (active) | AC50 (Cytochrome P450 1A2): 5.01 µM (inconclusive) | EC50 [6]: 4.09 µM (active)

Cc1ccc(/C=c2/sc3n(c2=O)CCCN=3)o1
EC50 (H4): 11.8 µM (active) | EC50 [1]: 0.161 µM (active)

COc1cccc(N(C(=O)c2snc(C(N)=O)c2N)C(C(=O)NCc2ccccc2)c2ccc(O)cc2)c1 (stereo unspecified)
CC50 [2]: > 50 µM (active)
